Data reported in patent US10562912B2 (C&C Research Laboratories, priority 2013, dated 2020).

Assays:
Format in all cases: cell-based
STAT3 = target: T1, STAT3 (Homo sapiens, UniProt P40763); assay: STAT3 reporter gene assay (luciferase), LNCaP stable cell line (pSTAT3-TA-luc), IL-6 stimulation
T1 construct: plasmid pSTAT3-TA-luc), which contains a stably operating STAT3 promoter; endogenous in cells
How it was run: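 LNCaP cells stably carrying pSTAT3-TA-luc, in RPMI1640 with 3% DCC-FBS, were treated with compound and then stimulated with 10 ng/mL IL-6 for 24–48 h at 37 °C. Luciferase activity was measured in lysates. A parallel plate measured viability by CellTiter-Glo, with stimulated 0.1% DMSO wells as the positive control.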

HEL92.1.7 = assay: Cell growth inhibition assay, blood cancer cell line HEL92.1.7; conditions: Homo sapiens, HEL 92.1.7, HEL92.1.7 blood cancer cell line
Protocol: The inhibitory effects of the compounds of the present invention against the growth of cancer cells were evaluated as shown below. The cancer cell lines including stomach cancer cell line (AGS), breast cancer cell lines (MDA-MB-231, MDA-MB-468, and BT-549), prostate cancer cell lines (LNCaP and DU-145), colon cancer cell line (HCT116), ovarian cancer cell line (SW626), liver cancer cell line (Hep3B), kidney cancer cell line (ACHN), lung cancer cell line (NCI-H23) and blood cancer cell lines (HEL92.1.7 and U266) were cultured under the protocol provided by each supplier. A medium supplemented with 10 ng/mL of IL-6 was used for LNCaP, a prostate cancer cell line, when treated with a drug. Each type of cells to be used in experiments were sub-cultured in a 96-well plate by counting the exact number of cells using Tali™ Image-based Cytometer (Life Technologies). In a 96-well plate, AGS, HCT116, and DU-145 were employed with 3,000 cells/well; NCI-H23, SW626, Hep3B, ACHN, BT-549, MDA-MB-231, HEL92.1.7, and U266 were employed with 5,000 cells/well; and LNCaP and MDA-MB-468 were employed with 10,000 cells/well. The cells were treated with the compounds listed in Examples which were diluted in various concentrations. Upon completion of the compounds treatment, AGS, HCT116, SW626, DU145, NCI-H23, Hep3B, ACHN, BT-549, LNCaP, HEL92.1.7, and U266 cells were cultured at 37° C. under 5% CO2 for from 72 to 96 hours, and MDA-MB-231 and MDA-MB-468 cells were cultured at 37° C. in air for from 72 to 96 hours. Subsequently, the cells were observed under microscope and drug precipitation and particular findings were investigated and recorded. And then, the 96-well plate was placed at room temperature for 30 minutes, added with 20 μL/well of CellTiter-Glo solution (Cat No. G7573, Promega) and shaken for 10 minutes, followed by being subjected to the measurement using PHERAstar™ microplate reader (BMG LABTECH) according to the supplier's general luminometer protocol. Wells where only culture liquid added without cell plating were used as a negative control, whereas wells where culture liquid containing 0.1% DMSO instead of the compounds listed in Examples were used as a positive control.

LNCaP = assay: Cell growth inhibition assay, prostate cancer cell line LNCaP (medium with 10 ng/mL IL-6); conditions: Homo sapiens, medium supplemented with 10 ng/mL of IL-6, 10,000 cells/well
DU-145 = assay: Cell growth inhibition assay, prostate cancer cell line DU-145; conditions: Homo sapiens, DU-145 prostate cancer cell line
How it was run: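 Cells were seeded at 3,000/well (HCT116, DU-145) or 5,000/well (SW626 and the others) and exposed to serial compound dilutions for 72 to 96 h at 37 °C under 5% CO2. Viability was read as CellTiter-Glo luminescence against 0.1% DMSO and cell-free wells.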

T1 sequence (P40763 whole entry): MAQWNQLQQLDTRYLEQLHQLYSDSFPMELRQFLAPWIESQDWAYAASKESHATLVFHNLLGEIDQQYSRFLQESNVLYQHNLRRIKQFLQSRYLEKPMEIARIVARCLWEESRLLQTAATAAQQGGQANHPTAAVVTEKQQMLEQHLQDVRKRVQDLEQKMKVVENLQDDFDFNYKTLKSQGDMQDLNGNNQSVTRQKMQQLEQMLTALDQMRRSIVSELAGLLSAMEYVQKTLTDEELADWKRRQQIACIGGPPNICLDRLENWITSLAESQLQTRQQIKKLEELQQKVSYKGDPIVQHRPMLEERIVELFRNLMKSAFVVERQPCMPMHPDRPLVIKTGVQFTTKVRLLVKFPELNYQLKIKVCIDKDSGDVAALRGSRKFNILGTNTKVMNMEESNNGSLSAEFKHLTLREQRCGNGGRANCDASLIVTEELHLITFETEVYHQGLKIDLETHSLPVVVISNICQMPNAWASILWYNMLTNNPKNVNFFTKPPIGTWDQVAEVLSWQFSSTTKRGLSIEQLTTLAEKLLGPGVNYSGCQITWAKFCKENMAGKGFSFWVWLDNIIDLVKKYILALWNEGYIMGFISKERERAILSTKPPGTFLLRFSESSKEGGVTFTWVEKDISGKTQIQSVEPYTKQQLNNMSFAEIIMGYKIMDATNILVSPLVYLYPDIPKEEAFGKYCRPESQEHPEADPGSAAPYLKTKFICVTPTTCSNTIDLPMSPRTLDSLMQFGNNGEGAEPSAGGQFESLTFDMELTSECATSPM

IC50 (STAT3) | IC50 (HEL92.1.7) | IC50 (LNCaP) | IC50 (DU-145) | Structure (SMILES)
0.2 µM | 0.48 µM | 0.42 µM | 0.16 µM | CS(=O)(=O)Nc1ccc2sc(C(=O)Nc3cc(Cl)cc(Nc4ccc(F)cc4F)c3)cc2c1 [Example 438, N-(3-chloro-5-((2,4-difluorophenyl)amino)phenyl)-5-(methylsulfonamido)benzo[b]thiophene-2-carboxamide]
0.053 µM | 0.64 µM | 0.15 µM | 0.089 µM | CN(c1cc(Cl)cc(NC(=O)c2cc3cc(NS(C)(=O)=O)ccc3s2)c1)c1ccc(F)cc1F [Example 439, N-(3-chloro-5-((2,4-difluorophenyl)(methyl)amino)phenyl)-5-(methylsulfonamido)benzo[b]thiophene-2-carboxamide]
0.34 µM | 0.5 µM | 0.34 µM | 0.39 µM | COc1cc(OC(F)(F)F)cc(-c2cc(Cl)cc(NC(=O)c3cc4cc(NS(=O)(=O)C5CCOC5)ccc4s3)c2)c1 (stereo not shown) [Example 328, N-(5-chloro-3′-methoxy-5′-(trifluoromethoxy)-[1,1′-biphenyl]-3-yl)-5-((tetrahydrofuran)-3-sulfonamido)benzo[b]thiophene-2-carboxamide]
0.65 µM | 0.68 µM | 0.34 µM | 0.15 µM | Cc1noc(C)c1S(=O)(=O)Nc1ccc2sc(C(=O)Nc3cc(Cl)cc(C(C)(C)c4cc(OC(C)C)cc(OC(F)(F)F)c4)c3)cc2c1 [Example 199, N-(3-chloro-5-(2-(3-isopropoxy-5-(trifluoromethoxy)phenyl)propan-2-yl)phenyl)-5-((3,5-dimethylisoxazole)-4-sulfonamido)benzo[b]thiophene-2-carboxamide]
0.13 µM | 0.39 µM | 0.096 µM | 0.13 µM | Cn1ccc(C(C)(C)c2cc(Cl)cc(NC(=O)c3cc4cc(NS(C)(=O)=O)ccc4s3)c2)c1 [Example 168, N-(3-chloro-5-(2-(1-methyl-1H-pyrrol-3-yl)propan-2-yl)phenyl)-5-(methylsulfonamido)benzo[b]thiophene-2-carboxamide]
0.84 µM | 2.2 µM | 1.6 µM | 0.98 µM | CS(=O)(=O)Nc1ccc2sc(C(=O)Nc3cc(Br)cc(S(=O)(=O)N4CCc5ccc(F)cc5C4)c3)cc2c1 [Example 418, N-(3-bromo-5-((7-fluoro-3,4-dihydroisoquinolin-2(1H)-yl)sulfonyl)phenyl)-5-(methylsulfonamido)benzo[b]thiophene-2-carboxamide]
2.2 µM | 4.7 µM | 0.36 µM | > 1.1 µM | CC(C)Oc1cc(OC(F)(F)F)cc(C(C)(C)c2cc(Cl)cc(NC(=O)c3cc4nc(NS(C)(=O)=O)cnc4s3)c2)c1 [Example 151, N-(3-chloro-5-(2-(3-isopropoxy-5-(trifluoromethoxy)phenyl)propan-2-yl)phenyl)-2-(methylsulfonamido)thieno[2,3-b]pyrazine-6-carboxamide]
0.047 µM | 0.22 µM | 0.07 µM | 0.048 µM | CC(C)(c1cc(Br)cc(NC(=O)c2cc3cc(NS(C)(=O)=O)ncc3s2)c1)c1cc(OC(F)(F)F)cc(OC(F)(F)C(F)F)c1 [Example 89, N-(3-bromo-5-(2-(3-(1,1,2,2-tetrafluoroethoxy)-5-(trifluoromethoxy)phenyl)propan-2-yl)phenyl)-5-(methylsulfonamido)thieno[2,3-c]pyridine-2-carboxamide]
0.31 µM | > 1.1 µM | 1 µM | 0.41 µM | CC(C)(c1cc(Cl)cc(NC(=O)c2cc3cc(NS(C)(=O)=O)ccc3s2)c1)c1ccc[nH]1 [Example 166, N-(3-(2-(1H-pyrrol-2-yl)propan-2-yl)-5-chlorophenyl)-5-(methylsulfonamido)benzo[b]thiophene-2-carboxamide]
0.3 µM | 0.58 µM | 0.31 µM | 0.063 µM | CC(C)Oc1cc(OC(F)(F)F)cc(C(C)(C)c2cc(Cl)cc(NC(=O)c3cc4cc(NS(=O)(=O)C5CCS(=O)(=O)CC5)ccc4s3)c2)c1 [Example 205, N-(3-chloro-5-(2-(3-isopropoxy-5-(trifluoromethoxy)phenyl)propan-2-yl)phenyl)-5-((1,1-dioxidotetrahydro-2H-thiopyran)-4-sulfonamido)benzo[b]thiophene-2-carboxamide]
0.24 µM | 0.39 µM | 0.16 µM | 0.15 µM | COc1cc(OC(F)(F)F)cc(-c2cc(Cl)cc(NC(=O)c3cc4cc(NS(C)(=O)=O)c(F)cc4s3)c2)c1 [Example 325, N-(5-chloro-3′-methoxy-5′-(trifluoromethoxy)-[1,1′-biphenyl]-3-yl)-6-fluoro-5-(methylsulfonamido)benzo[b]thiophene-2-carboxamide]
0.011 µM | 0.019 µM | 0.013 µM | 0.016 µM | CN(c1cc2cc(C(=O)Nc3cc(Cl)cc(C(C)(C)c4ccc(Cl)cc4)c3)sc2cc1F)S(C)(=O)=O [Example 163, N-(3-chloro-5-(2-(4-chlorophenyl)propan-2-yl)phenyl)-6-fluoro-5-(N-methylmethylsulfonamido)benzo[b]thiophene-2-carboxamide]
0.17 µM | > 1.1 µM | 0.99 µM | 0.3 µM | CC(C)Oc1cc(OC(F)(F)F)cc(C(C)(C)c2cc(I)cc(NC(=O)c3sc4ccc(NS(C)(=O)=O)cc4c3I)c2)c1 [Example 214, 3-iodo-N-(3-iodo-5-(2-(3-isopropoxy-5-(trifluoromethoxy)phenyl)propan-2-yl)phenyl)-5-(methylsulfonamido)benzo[b]thiophene-2-carboxamide]
0.053 µM | 0.007 µM | 0.034 µM | 0.038 µM | CC(C)Oc1cc(OC(F)(F)F)cc(C2(c3cc(Cl)cc(NC(=O)c4cc5cc(NS(C)(=O)=O)ccc5s4)c3)CC2)c1 [Example 431, N-(3-chloro-5-(1-(3-isopropoxy-5-(trifluoromethoxy)phenyl)cyclopropyl)phenyl)-5-(methylsulfonamido)benzo[b]thiophene-2-carboxamide]
5.2 µM | > 1.1 µM | 2.6 µM | 1 µM | CC(C)Oc1cc(N2CC[N+](C)([O-])CC2)cc(C(C)(C)c2cc(Cl)cc(NC(=O)c3cc4cc(NS(C)(=O)=O)ccc4s3)c2)c1 [Example 144]
0.007 µM | 0.013 µM | 0.014 µM | 0.007 µM | CCS(=O)(=O)Nc1ccc2sc(C(=O)Nc3cc(Cl)cc(C(C)(C)c4cc(OC(C)C)cc(OC(F)(F)F)c4)c3)cc2c1 [Example 202, N-(3-chloro-5-(2-(3-isopropoxy-5-(trifluoromethoxy)phenyl)propan-2-yl)phenyl)-5-(ethylsulfonamido)benzo[b]thiophene-2-carboxamide]
0.063 µM | 0.23 µM | 0.079 µM | 0.06 µM | CSc1ccc(C(C)(C)c2cc(Cl)cc(NC(=O)c3cc4cc(NS(C)(=O)=O)ccc4s3)c2)cc1 [Example 157, N-(3-chloro-5-(2-(4-(methylthio)phenyl)propan-2-yl)phenyl)-5-(methylsulfonamido)benzo[b]thiophene-2-carboxamide]
0.065 µM | 0.11 µM | 0.1 µM | 0.043 µM | CC(C)(c1ccccc1)c1cc(Cl)cc(NC(=O)c2cc3cc(NS(C)(=O)=O)ccc3s2)c1 [Example 64, N-(3-chloro-5-(2-phenylpropan-2-yl)phenyl)-5-(methylsulfonamido)benzo[b]thiophene-2-carboxamide]
0.032 µM | 0.078 µM | 0.056 µM | 0.012 µM | CC(C)Oc1cc(Br)cc(C(C)(C)c2cc(Cl)cc(NC(=O)c3cc4cc(NS(C)(=O)=O)ccc4s3)c2)c1 [Example 91, N-(3-(2-(3-bromo-5-isopropoxyphenyl)propan-2-yl)-5-chlorophenyl)-5-(methylsulfonamido)benzo[b]thiophene-2-carboxamide]
